The results in this text go back to PubChem BioAssay (NCI).

SMILES strings stand for the structures. “And” between values parts separate entries of the source, which are not always exact repeats. Equal values may be shown once.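 Where inhibition never reached the appropriate level, the endpoint shown equals the highest concentration tested. Otherwise, values were interpolated linearly from a five-concentration, 48-hour dose response in 96-well plates. The concentration for 50% growth inhibition is given as GI50. TGI marks complete inhibition of growth.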

The test system of the test is MDA-MB-468 breast. Briefly: NCI-60 cell line screen, 48 h.
For the compound `FC(F)(F)c1ccc(-c2cnc(Br)nc2NC2CCCCCC2)cc1`, the GI50 was 24.9 µM and the TGI was > 100 µM.
As to `NC(CSC(c1ccccc1)(c1ccccc1)c1ccc2ccccc2c1)C(=O)O` (configuration not stated), the GI50 was 0.045 µM and the TGI is 22.3 µM.
For `Fc1ccc(-c2ncn(C3CCNCC3)c2-c2ccnc(Oc3cccc(F)c3)n2)cc1` the same measures were 2.61 µM and 6.82 µM.
Take `c1ccc(-c2nc(N3CCNCC3)c3nc(-c4ccccc4)oc3n2)cc1`: the GI50 is 1.93 µM and the TGI stood at 3.66 µM.
Regarding `CC(C)(C)CC(C)(C)c1ccc(OCCOCCSC(=N)N)cc1`, the GI50 is 1.59 µM and the TGI is 3.32 µM.
For `O=C(/C=C\c1ccnc2ccccc12)c1ccc([N+](=O)[O-])cc1` the same measures were 1.04 µM and 9.09 µM.
For `O=C(/C=C/c1ccco1)Nc1ncc(Cc2ccc(F)cc2)s1` the same measures were 0.142 µM and > 25.2 µM.
For `CC(=O)N1CC(F)(F)c2c(Sc3ncc(N4CCC5(CC4)COC[C@H]5N)nc3N)cccc21` the same measures were 14.8 µM and 50.5 µM.
On to `C[C@@H]1CC[C@@]2(OC1)O[C@H]1C[C@H]3[C@@H]4CC=C5C[C@@H](O[C@@H]6O[C@H](CO)[C@@H](O[C@@H]7O[C@@H](CO)[C@H](O)[C@H]7O)[C@H](O)[C@H]6O[C@@H]6O[C@@H](C)[C@H](O)[C@@H](O)[C@H]6O)CC[C@]5(C)[C@H]4CC[C@]3(C)[C@H]1[C@@H]2C`, for which the GI50 was 0.361 µM and the TGI worked out at 1.45 µM.
`COc1ccc(/C=C2\N=C3SC=C(N)N3C2=O)cc1`: the GI50 is 0.291 µM and the TGI amounted to 1.66 µM.
In the case of `O=c1[nH]c(-c2ccc(C(F)(F)F)cc2)nc2c1CSCC2`, the GI50 was 36.1 µM and the TGI is > 100 µM.
Regarding `Cn1c(=O)c2[nH]c(COc3ccc(C(C)(C)C)cc3)nc2n(C)c1=O`, the GI50 was 8.08 µM and the TGI amounted to 72.3 µM.
For `C#Cc1ccc(NC(=O)c2ccc(/C=C/C(=O)c3nccn3C)cc2)cc1` the same measures were 0.4 µM and 0.918 µM.
For `CN(C)c1ccc(/C=C/c2ccnc3ccccc23)cc1` the same measures were 0.298 µM and 16.9 µM.
For `C=C1C(C)C2C(Cc3ccccc3)NC(=O)C23C(OC(C)=O)/C=C/C(C)(O)CC(C)C/C=C/C3C1O` (configuration not stated) the same measures were 0.199 µM and > 100 µM.
`CCCC[C@@H](COC(=O)N(Cc1cccs1)Cc1cccs1)NC(=O)N[C@@H](CC(=O)OC)c1ccc2c(c1)OCO2`: the GI50 was > 100 µM and the TGI is > 100 µM.
Consider `Cn1ccnc1C(=O)/C=C/c1ccc(C(=O)Nc2nc3ccccc3[nH]2)cc1`, for which the GI50 was 1.29 µM and the TGI was > 25 µM.
For `C[Se]C(=O)CC1=C2C=C(F)C=CC2/C(=C\c2ccc(S(C)=O)cc2)C1C` (configuration not stated) the same measures were 0.134 µM and 1.41 µM.
For `CCNCCNc1cc(-c2ccc(F)cc2)c(C#N)c2nc3ccccc3n12` the same measures were 1.85 µM and 4.12 µM.
For `COC(=O)CCC1=C(C)c2cc3[n-]c(cc4nc(cc5[n-]c(cc1n2)c(CCC(=O)OC)c5C)C=C4C)cc3C.[Cd+2]` the same measures were 3.29 µM and 12 µM.
Regarding `CC/C=C\CCC/C=C1/C(=O)C=C[C@@H]1C/C=C\CCCC(=O)O`, the GI50 was 4.61 µM and the TGI is 18.7 µM.
For `CCSC1=CC(=O)c2ccccc2C1=O` the same measures were 0.18 µM and 0.417 µM.
`Oc1ccccc1-n1c(-c2ccccc2)ccc1-c1ccccc1`: the GI50 was 3.3 µM and the TGI was found to be 15.7 µM.
For `COc1ccc(-c2ccc(-c3ccc(C(=N)N)cn3)s2)cc1Cl` the same measures were 1.57 µM and 3.15 µM.
For `O=C(Nc1cc(Cl)cc(Cl)c1)Nc1ccc2oc(=O)ccc2c1` the same measures were 2.81 µM and 7.45 µM.
For `C#Cc1nc(/C=C\CCCCCCC(=O)NO)cs1`, the GI50 is 1.19 µM and the TGI is 3.12 µM.
Turning to `Cc1nc(NC(=O)N2CCC[C@H]2C(N)=O)sc1-c1ccnc(C(C)(C)C(F)(F)F)c1`, the GI50 is 0.309 µM and 0.596 µM; the TGI was 6.97 µM and > 10 µM.
On to `N#Cc1nc(-c2ccccc2)oc1S(=O)(=O)N1CCOCC1`, for which the GI50 is 2.21 µM and the TGI was determined as 6.21 µM.
For `CC#CC(=O)N1CCC[C@H]1c1nc(-c2ccc(C(=O)Nc3ccccn3)cc2)c2c(N)nccn12` the same measures were 19 µM and > 76 µM.
For `CC[C@H](C)[C@H](NC(=O)C12C3C4C1C1C2C3C41NC(C)=O)C(=O)N(C)[C@H](C[C@@H](OC(C)=O)c1nc(C(=O)N[C@@H](Cc2ccccc2)C[C@H](C)C(=O)OC)cs1)C(C)C` (some centres not stated) the same measures were 0.081 µM and > 3.98 µM.
Turning to `O=C1/C(=C/c2cccs2)CCC/C1=C\c1cccs1`, the GI50 was 0.577 µM and the TGI amounted to 14.9 µM.
For `CN(Cc1cnc2nc(N)nc(N)c2n1)c1ccc(C(=O)NC(CCC(=O)O)C(=O)O)cc1` (configuration not stated) the same measures were 0.112 µM and > 100 µM.
As to `COc1ccc(C(O)c2cc3c(N)c(C(=O)Nc4cccc(Br)c4)sc3nc2C)cc1` (configuration not stated), the GI50 is 0.0969 µM.
With `COc1ccccc1-n1c(SCc2cc(OC)c(OC)c(OC)c2)nc2ccc(Cl)cc2c1=O`, the GI50 is 0.895 µM and the TGI stood at 8.99 µM.
For `COc1ccc2c3c(c(OCCCN(C)C)nc2c1)-c1ccc(Cl)cc1C3=O` the same measures were 4.7 µM and 19.5 µM.
In the case of `O=Nc1c(O)ccc2ccccc12`, the GI50 was 4.51 µM and the TGI was 25.3 µM.
Take `O=C(CCN1CCCC1)Nc1ccc2c(NCCCc3ccccc3)c3ccccc3nc2c1`: the GI50 was 0.477 µM and the TGI came out at 1.7 µM.
For `COc1cc(C2C(C#N)=C(N)OC3=C2C(=O)c2ccccc2C3=O)cc(OC)c1OC` (configuration not stated) the same measures were 2.26 µM and 6.64 µM.
For `COc1ccc(/C=C(\C#N)c2cc3ccccc3n2C)cc1` the same measures were 0.273 µM and 1.99 µM.
With `COc1ccc(NC(=O)c2cc(OC)c(OC)c(OC)c2)cc1O`, the GI50 is 0.861 µM and the TGI came out at 15.8 µM.
For `COc1ccc(/C=C\c2cc(OC)c(OC)c(OC)c2)c(NS(=O)(=O)c2ccc(C)cc2)c1O` the same measures were 0.0261 µM and 0.711 µM.
For `COc1ccc2c(c1)OC13Oc4cc(OC)ccc4C=C1CCCC3=C2` the same measures were > 100 µM and > 100 µM.
For `Oc1c(CN2CCCC2)cc(COCc2ccccc2)c2cccnc12`, the GI50 is 2.3 µM and the TGI amounted to 6.14 µM.
For `CCS/C(Nc1ccccc1)=C(\C#N)C(=O)Nc1ccc(OC)cc1` the same measures were 1.39 µM and 7.51 µM.
